Values of other authors as cited in patent US7598279B2, “Neurotherapeutic azole compounds” (SK Holdings Co., Ltd., priority 2005, dated 2009).

Assays:
[1] = tested on: mice and rats; conditions: cited from earlier work
[2] = tested on: mice; conditions: probably by inhibition of cytochrome P-450; cited from earlier work
[3] = tested on: clonic seizures; conditions: in vivo; cited from earlier work

In the case of `O=C(Cn1ccnc1)c1ccc2ccccc2c1` [Nafimidone, 2-(1H-imidazole-1-yl)-1-(2-naphthalenyl)ethanone], the “protection against maximal electroshock- or pentylenetetrazole-induced tonic seizures” value [1] is listed as “protect”, the hexobarbital-induced sleeping time [2] is listed as “potentiated” and the “antagonism of clonic seizures induced by pentylenetetrazole, strychnine, bicuculline, or picrotoxin” value [3] is listed as “do not antagonize”.
For `OC(Cn1ccnc1)c1ccc(CCc2ccccc2)cc1` (stereo not drawn) [denzimol, α-(4-(2-phenylethyl)phenyl)-1H-imidazole-1-ethanol], the “protection against maximal electroshock- or pentylenetetrazole-induced tonic seizures” value [1] is listed as “protect”, the hexobarbital-induced sleeping time [2] is listed as “potentiated” and the “antagonism of clonic seizures induced by pentylenetetrazole, strychnine, bicuculline, or picrotoxin” value [3] is listed as “do not antagonize”.
